According to PubChem BioAssay AID449774 (The Scripps Research Institute Molecular Screening Center, 2010):
Values after ≈ are worked out from the molar mass of the structure shown.

What follows are molecules tested on wildtype E. coli growth inhibition, MIC (assay: minimum inhibitory concentration in E. coli – MIC, dose response, counter-screen for IMP-1/VIM-2 inhibitor project, late-stage follow-up (AID 449774)).

First: O=C(O)c1cc[c]([Hg][Cl])cc1
Second: O=C(O)c1ccc[c]([Hg+])c1
The MIC of the first is 4-fold higher: 12500 nM for the first, 3130 nM for the second.

First: [Hg+][c]1ccccc1
Second: COc1cccc[c]1[Hg+]
The MIC of the first is 2-fold lower: 390 nM for the first, 780 nM for the second.

`Cc1cc[c]([Hg+])cc1` and `CC(=O)Nc1cc[c]([Hg+])cc1` are the same in MIC: 1560 nM for the first, 1560 nM for the second.

For `C[C@@H](O)[C@H]1C(=O)N2C(C(=O)O)=C(SCCN=CN)C[C@H]12`, the MIC was 780 nM (≈ 0.233 µg/mL).
